Test results reported in article PMC2063203, “The renal effects of the water-soluble, non-folylpolyglutamate synthetase-dependent thymidylate synthase inhibitor ZD9331 in mice” (British Journal of Cancer, 1998).
“And” between values parts separate entries of the source, which are not always exact repeats. Equal values may be shown once. Read-outs that look alike come from different tables or passages of the source.

Experiment: Plasma pharmacokinetics of ZD9331 (HPLC, non-compartmental)
Type: in vivo, mice
Conditions: for AUC(0-t): read-out: AUC0-8h; for concentration at 4 h: read-out: plasma drug concentration at 4 h; for Cmax / Tmax: mouse
Experimental: British Journal of Cancer (1998) 78(11), 1457-1463 ? […] In contrast to Tomudex (ZD1694), ZD9331 may therefore be active against tumours with low FPGS activity. […] In view of the history of renal toxicity with some earlier TS inhibitors and the possible therapeutic use of bolus ZD9331, we have examined the effects of bolus ZD9331 dose and route of administration on plasma and kidney pharmacokinetics and renal function in mice. Renal function was assessed by measuring [14C]inulin clearance, and drug concentrations were assayed by reverse-phase high-performance liquid chromatography (HPLC). […] Kidney drug concentrations were slightly elevated in iv.- versus i.p.-treated animals at the low dose (50 mg kg-'), with a correspondingly larger area under the curve. However, at the highest dose (200 mg kg-'), peak kidney drug concentrations were 20-fold higher following i.v. administration than after i.p., with marked kidney retention, resulting in a 50-fold greater kidney drug exposure for the i.v. versus the i.p. route. […] These adverse effects can be readily overcome by i.p. administration, indicating the likely need for short infusions in clinical settings. […] Early studies established that nephrotoxicity may be a result of poor aqueous solubility of 2-amino compounds such as CB3717, and it was shown that 2-desamino CB3717 was more water soluble and less nephrotoxic (Jones et al, 1989; 1996). […] These polyglutamate forms also exibit intra- cellular retention, which may contribute to toxicity as well as anti- tumour activity. […] Such compounds might be expected to show activity in a different spectrum of tumours from ZD1694 and to have a more manageable toxicity profile because of the lack of retained cyto- toxic metabolites. […] MATERIALS AND METHODS Drug administration and animals The compound ZD933 1 (Figure 1) was provided as a white crystalline salt. ['4C]inulin was provided as a carboxylic acid (Amersham, UK, 250 µCi in 5 ml, specific activity 6.6 mCi mmol-') and diluted to an activity of 5 µCi ml-' in phosphate-buffered saline (PBS). ZD9331 was dissolved in 0.05 M sodium bicarbonate, 1457 1458 Ml Walton et al ~~ N Ny~~~14COOHH 0 H IN H N CH ~~~~H , 4 H3C N3 H Figure 1 The chemical structure of ZD9331 adjusted to pH 9.0 and administered either i.v. via the tail vein or i.p. at 0.01 ml g-' mouse body weight. [14C]inulin was administered at 0.05 gCi g-' (i.e. 0.01 ml g-') i.v. via the tail vein. Adult female DBA-2 mice were obtained from OLAC (Bicester, UK) and used at 8-12 weeks of age at a body weight of 15-25 g. Mice were housed in cages containing untreated sawdust and allowed access to food and water ad libitum. Sample preparation Plasma and tissue samples were prepared using standard tech- niques (Walton et al, 1996). Briefly, whole blood was obtained by cardiac puncture into heparinized syringes from halothane- anaesthetized mice. Plasma was prepared by centrifugation at 12 000 r.p.m. x 2 min in a bench-top microcentrifuge. Kidney and liver tissues were rapidly removed, washed and snap frozen on dry ice. Frozen plasma and tissues were stored at -20?C for up to 4 weeks prior to analysis. Individual samples were thawed on ice and handled rapidly. ZD9331 was extracted from whole plasma or tissue homogenates (33% w/v in 0.1 M Tris, pH 10.0) by the addition of an equal volume of acetonitrile, mixing and centrifugation and the super- natant removed for injection into the HPLC system. Samples were diluted with Tris buffer (0.1 M, pH 10.0) on to the linear part of the calibration curve prior to HPLC analysis. Extraction efficiencies were >95%. HPLC analysis Concentrations of ZD9331 were measured in biological samples using reversed phase HPLC on equipment supplied by Kontron (Watford, UK). Separations were carried out using stainless-steel columns heated at 45?C and packed with C18 Supelcosil ODS (10 cm x 4.6 mm, 5 µm bead size, Sigma, Dorset) and protected with NewGuard C18 columns (Anachem, Luton, UK). […]

[1] = female, ip, plasma, DBA-2 mice, 50 mg kg-1 i.p.
[2] = female, ip, plasma, DBA-2 mice, 200 mg kg-1 i.p.
[3] = female, iv, plasma, DBA-2 mice, 50 mg kg-1 i.v. bolus
[4] = female, iv, plasma, DBA-2 mice, 100 mg kg-1 i.v. bolus
[5] = female, iv, plasma, DBA-2 mice, 200 mg kg-1 i.v. bolus

SMILES: C#CCN(Cc1cc2c(=O)[nH]c(C)nc2cc1C)c1ccc(C(=O)N[C@@H](CCc2nnn[nH]2)C(=O)O)c(F)c1 [ZD9331, (2S)-2-{O-fluoro-p-(N-(2,7-dimethyl-4-oxo-3,4-dihydroquinazolin-6-ylmethyl)-N-(prop-2-ynyl)amino}benzamido}-4-(tetrazol-5-yl)butyric acid]
- peak plasma concentration i.p. as % of i.v. (50 mg kg-1): 11%
- peak plasma concentration i.p. as % of i.v. (200 mg kg-1): 25%
- AUC(0-t) (female, DBA-2, mouse, plasma, ip, 50 mg/kg, plasma, DBA-2 mice, 50 mg kg-1 i.p.): 90.1 µM·h
- half-life (female, DBA-2, mouse, plasma, ip, 50 mg/kg, plasma, DBA-2 mice, 50 mg kg-1 i.p., read-out: t1/2): 93.4 min
- AUC(0-t) (female, DBA-2, mouse, plasma, ip, 200 mg/kg, plasma, DBA-2 mice, 200 mg kg-1 i.p.): 315 µM·h
- half-life (female, DBA-2, mouse, plasma, ip, 200 mg/kg, plasma, DBA-2 mice, 200 mg kg-1 i.p., read-out: t1/2): 99 min
- bioavailability (female, DBA-2, mouse, plasma, ip, 50 mg kg-1, read-out: i.p. bioavailability): 80%
- concentration at 4 h (female, DBA-2, mouse, plasma, ip, 50 mg kg-1 i.p.): 1000 nM
- concentration at 4 h (female, DBA-2, mouse, plasma, ip, 200 mg kg-1 i.p.): 1860 nM
- AUC(0-t) (female, DBA-2, mouse, plasma, iv, 50 mg/kg, plasma, DBA-2 mice, 50 mg kg-1 i.v. bolus): 75.3 µM·h
- half-life (female, DBA-2, mouse, plasma, iv, 50 mg/kg, plasma, DBA-2 mice, 50 mg kg-1 i.v. bolus, read-out: t1/2 (apparent terminal elimination)): 57 min
- AUC(0-t) (female, DBA-2, mouse, plasma, iv, 100 mg/kg, plasma, DBA-2 mice, 100 mg kg-1 i.v. bolus): 109 µM·h
- half-life (female, DBA-2, mouse, plasma, iv, 100 mg/kg, plasma, DBA-2 mice, 100 mg kg-1 i.v. bolus, read-out: t1/2): 91.7 min
- AUC(0-t) (female, DBA-2, mouse, plasma, iv, 200 mg/kg, plasma, DBA-2 mice, 200 mg kg-1 i.v. bolus): 332 µM·h
- half-life (female, DBA-2, mouse, plasma, iv, 200 mg/kg, plasma, DBA-2 mice, 200 mg kg-1 i.v. bolus, read-out: t1/2): 64.5 min
- concentration at 4 h (female, DBA-2, mouse, plasma, iv, 50 mg kg-1 i.v.): 1100 nM
- concentration at 2 min (female, DBA-2, mouse, plasma, iv, 100 mg kg-1 i.v., read-out: plasma drug concentration at 2 min): 898000 nM
- concentration at 5 min (female, DBA-2, mouse, plasma, iv, 100 mg kg-1 i.v., read-out: plasma drug concentration at 5 min): 771000 nM
- concentration at 4 h (female, DBA-2, mouse, plasma, iv, 200 mg kg-1 i.v.): 1300 nM
- Cmax [1]: 74100 ng/mL and 139 µM
- Tmax [1]: 10 min
- Cmax [2]: 483000 ng/mL and 906 µM
- Tmax [2]: 10 min
- Cmax [3]: 696000 ng/mL and 1.31 mM
- Tmax [3]: 1 min
- Cmax [4]: 708000 ng/mL and 1.32 mM
- Tmax [4]: 1 min
- Cmax [5]: 1.9e+06 ng/mL and 3.63 mM
- Tmax [5]: 1 min
- relation of plasma drug exposure (AUC) to dose (i.p., range 0-200 mg kg-1): linearly related to dose
- relation of plasma drug exposure (AUC) to dose (i.v., up to 200 mg kg-1): marked deviation from linearity at the highest dose
- peak plasma concentration (plasma, 50 mg kg-1 i.v.): 1.3 mM
- i.p. AUC0-8h as % of i.v. (plasma, 200 mg kg-1): 63%
- t1/2 (apparent terminal elimination) (plasma, DBA-2 mice, 50 mg kg-1 i.v. bolus): 57.7 min
